Laboratory results taken from ChEMBL document CHEMBL5390317, “Novel Indane-Containing NBTIs with Potent Anti-Gram-Negative Activity and Minimal hERG Inhibition” (ACS Med Chem Lett, 2023).
Converted amounts (≈) assume the structure as drawn.

Tests used:
Pseudomonas aeruginosa [1] = experiment: Antibacterial activity against Pseudomonas aeruginosa NCTC 11451 assessed as inhibition in bacterial growth incubated for 20 to 24 hrs by CLSI based broth microdilution method; assay type: functional; conditions: Pseudomonas aeruginosa, NCTC 11451, time 20-24 hrs; read-out: MIC
[2] = Stability in rat plasma assessed as parent compound remaining after 5 hrs relative to control; assay type: ADME, cell-free; conditions: read-out: Stability
[3] = Stability in human plasma; assay type: ADME, cell-free
DNA gyrase = DNA gyrase (Escherichia coli, UniProt P0AES4+P0AES6); experiment: Inhibition of Escherichia coli DNA gyrase incubated for 80 mins by Transcreener ADP2 FI assay; assay type: protein-complex assay
Acinetobacter baumannii [4] = experiment: Antibacterial activity against Acinetobacter baumannii ATCC BAA-747 assessed as inhibition in bacterial growth incubated for 20 to 24 hrs by CLSI based broth microdilution method; assay type: functional; conditions: Acinetobacter baumannii, ATCC BAA-747, time 20-24 hrs; read-out: MIC
Klebsiella pneumoniae [5] = experiment: Antibacterial activity against Klebsiella pneumoniae ATCC 700603 assessed as inhibition in bacterial growth incubated for 20 to 24 hrs by CLSI based broth microdilution method; assay type: functional; conditions: Klebsiella pneumoniae, ATCC 700603, time 20-24 hrs; read-out: MIC
[6] = Stability in mouse plasma; assay type: ADME, cell-free
Acinetobacter baumannii [7] = experiment: Antibacterial activity against Acinetobacter baumannii ATCC 51432 assessed as inhibition in bacterial growth incubated for 20 to 24 hrs by CLSI based broth microdilution method; assay type: functional; conditions: Acinetobacter baumannii, ATCC 51432, time 20-24 hrs; read-out: MIC
Pseudomonas aeruginosa [8] = experiment: Antibacterial activity against Pseudomonas aeruginosa ATCC 27853 assessed as inhibition in bacterial growth incubated for 20 to 24 hrs by CLSI based broth microdilution method; assay type: functional; conditions: time 20-24 hrs
Pseudomonas aeruginosa [9] = experiment: Antibacterial activity against Pseudomonas aeruginosa NCTC 13437 assessed as inhibition in bacterial growth incubated for 20 to 24 hrs by CLSI based broth microdilution method; assay type: functional; conditions: Pseudomonas aeruginosa, NCTC 13437, time 20-24 hrs; read-out: MIC
[10] = Stability in human plasma assessed as parent compound remaining after 5 hrs relative to control; assay type: ADME, cell-free; conditions: read-out: Stability
Escherichia coli [11] = experiment: Antibacterial activity against Escherichia coli ATCC 25922 assessed as inhibition in bacterial growth incubated for 20 to 24 hrs by CLSI based broth microdilution method; assay type: functional; conditions: time 20-24 hrs
Escherichia coli [12] = experiment: Antibacterial activity against Escherichia coli ATCC BAA-2340 assessed as inhibition in bacterial growth incubated for 20 to 24 hrs by CLSI based broth microdilution method; assay type: functional; conditions: Escherichia coli, ATCC BAA-2340, time 20-24 hrs; read-out: MIC
Staphylococcus aureus [13] = experiment: Antibacterial activity against Staphylococcus aureus ATCC BAA-1556 assessed as inhibition in bacterial growth incubated for 20 to 24 hrs by CLSI based broth microdilution method; assay type: functional; conditions: Staphylococcus aureus, ATCC BAA-1556, time 20-24 hrs; read-out: MIC
Klebsiella pneumoniae [14] = experiment: Antibacterial activity against Klebsiella pneumoniae ATCC BAA-2146 assessed as inhibition in bacterial growth incubated for 20 to 24 hrs by CLSI based broth microdilution method; assay type: functional; conditions: Klebsiella pneumoniae, ATCC BAA-2146, time 20-24 hrs; read-out: MIC
[15] = molecular target: Voltage-gated inwardly rectifying potassium channel KCNH2 (Homo sapiens, UniProt Q12809); experiment: (§1) Inhibition of hERG potassium channel expressed in CHO cells by electrophysiological patch clamp assay; assay type: toxicity, cell-based
Sequence of Voltage-gated inwardly rectifying potassium channel KCNH2 (Q12809 whole entry): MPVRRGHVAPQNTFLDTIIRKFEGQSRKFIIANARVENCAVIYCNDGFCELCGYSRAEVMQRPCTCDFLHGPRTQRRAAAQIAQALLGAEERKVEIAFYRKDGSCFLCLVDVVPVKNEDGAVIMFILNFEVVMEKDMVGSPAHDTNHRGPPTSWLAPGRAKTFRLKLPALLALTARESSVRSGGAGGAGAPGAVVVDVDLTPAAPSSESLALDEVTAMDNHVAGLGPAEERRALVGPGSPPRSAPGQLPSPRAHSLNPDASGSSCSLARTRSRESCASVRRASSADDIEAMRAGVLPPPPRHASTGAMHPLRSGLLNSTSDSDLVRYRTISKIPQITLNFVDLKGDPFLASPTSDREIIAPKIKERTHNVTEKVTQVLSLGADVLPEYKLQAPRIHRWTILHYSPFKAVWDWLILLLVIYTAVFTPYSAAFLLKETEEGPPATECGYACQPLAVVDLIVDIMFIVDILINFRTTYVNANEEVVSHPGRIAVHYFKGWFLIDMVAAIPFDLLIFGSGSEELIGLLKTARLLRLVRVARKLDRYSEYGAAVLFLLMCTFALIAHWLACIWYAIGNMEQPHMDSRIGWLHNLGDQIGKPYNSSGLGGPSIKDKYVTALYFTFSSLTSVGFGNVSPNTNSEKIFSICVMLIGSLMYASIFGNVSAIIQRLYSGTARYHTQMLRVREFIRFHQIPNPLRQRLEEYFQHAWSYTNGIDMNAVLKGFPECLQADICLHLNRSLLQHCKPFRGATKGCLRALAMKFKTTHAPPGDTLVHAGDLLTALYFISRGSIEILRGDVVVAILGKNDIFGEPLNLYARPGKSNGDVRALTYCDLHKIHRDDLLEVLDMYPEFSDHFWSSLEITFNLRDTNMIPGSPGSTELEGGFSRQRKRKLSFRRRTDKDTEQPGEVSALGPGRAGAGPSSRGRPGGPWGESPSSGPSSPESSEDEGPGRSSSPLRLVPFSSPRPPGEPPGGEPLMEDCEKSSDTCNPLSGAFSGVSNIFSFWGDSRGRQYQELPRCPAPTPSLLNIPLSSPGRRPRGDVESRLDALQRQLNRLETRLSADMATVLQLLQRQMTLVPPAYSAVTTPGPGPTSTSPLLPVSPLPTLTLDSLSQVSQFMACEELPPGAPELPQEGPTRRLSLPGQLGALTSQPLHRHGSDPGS

hERG (KCNH2) [16] = molecular target: T1, hERG (KCNH2) (Homo sapiens, UniProt Q12809); experiment: as §1; assay type: toxicity, cell-based; conditions: human, CHO cells expressing hERG
T1 sequence (Q12809 whole entry): as above

Staphylococcus aureus [17] = experiment: Antibacterial activity against Staphylococcus aureus ATCC 29213 assessed as inhibition in bacterial growth incubated for 20 to 24 hrs by CLSI based broth microdilution method; assay type: functional; conditions: Staphylococcus aureus, ATCC 29213; time 20-24 hrs; read-out: MIC
Escherichia coli [18] = experiment: Antibacterial activity against Escherichia coli K-12 BW25113 assessed as inhibition in bacterial growth incubated for 20 to 24 hrs by CLSI based broth microdilution method; assay type: functional; conditions: Escherichia coli, K-12 BW25113, time 20-24 hrs; read-out: MIC
Klebsiella pneumoniae [19] = experiment: Antibacterial activity against Klebsiella pneumoniae ATCC BAA-1705 assessed as inhibition in bacterial growth incubated for 20 to 24 hrs by CLSI based broth microdilution method; assay type: functional; conditions: time 20-24 hrs
Acinetobacter baumannii [20] = experiment: Antibacterial activity against Acinetobacter baumannii ATCC 19606 assessed as inhibition in bacterial growth incubated for 20 to 24 hrs by CLSI based broth microdilution method; assay type: functional; conditions: time 20-24 hrs
[21] = Stability in rat plasma; assay type: ADME, cell-free
Escherichia coli [22] = experiment: Antibacterial activity against Escherichia coli ATCC 35218 assessed as inhibition in bacterial growth incubated for 20 to 24 hrs by CLSI based broth microdilution method; assay type: functional; conditions: Escherichia coli, ATCC 35218, time 20-24 hrs; read-out: MIC
[23] = Inhibition of Escherichia coli topoisomerase 4 incubated for 120 mins by Transcreener ADP2 FI assay
Escherichia coli [24] = experiment: Antibacterial activity against Escherichia coli K-12 BW25113 deltaTolC assessed as inhibition in bacterial growth incubated for 20 to 24 hrs by CLSI based broth microdilution method; assay type: functional; conditions: time 20-24 hrs
hERG (KCNH2) [25] = molecular target: T1, hERG (KCNH2); experiment: Inhibition of hERG potassium channel expressed in CHO cells at 1 uM by electrophysiological patch clamp assay relative to control; assay type: toxicity, cell-based; conditions: CHO cells expressing hERG
hERG (KCNH2) [26] = molecular target: T1, hERG (KCNH2); experiment: Inhibition of hERG potassium channel expressed in CHO cells at 10 uM by electrophysiological patch clamp assay relative to control; assay type: toxicity, cell-based; conditions: CHO cells expressing hERG
Klebsiella pneumoniae [27] = experiment: Antibacterial activity against Klebsiella pneumoniae ATCC 10031 assessed as inhibition in bacterial growth incubated for 20 to 24 hrs by CLSI based broth microdilution method; assay type: functional; conditions: time 20-24 hrs

Row | SMILES | MIC (Pseudomonas aeruginosa [1]) [µg/mL] | IC50 (DNA gyrase) [nM] | MIC (Acinetobacter baumannii [4]) [µg/mL] | MIC (Klebsiella pneumoniae [5]) [µg/mL] | MIC (Acinetobacter baumannii [7]) [µg/mL] | MIC (Pseudomonas aeruginosa [8]) [µg/mL] | MIC (Pseudomonas aeruginosa [9]) [µg/mL] | MIC (Escherichia coli [11]) [µg/mL] | MIC (Escherichia coli [12]) [µg/mL] | MIC (Staphylococcus aureus [13]) [µg/mL] | MIC (Klebsiella pneumoniae [14]) [µg/mL] | IC50 [15] [nM] | MIC (Staphylococcus aureus [17]) [µg/mL] | MIC (Escherichia coli [18]) [µg/mL] | MIC (Klebsiella pneumoniae [19]) [µg/mL] | MIC (Acinetobacter baumannii [20]) [µg/mL] | MIC (Escherichia coli [22]) [µg/mL] | IC50 [23] [nM] | MIC (Escherichia coli [24]) [µg/mL] | inhibition at 1 µM (hERG (KCNH2) [25]) [%] | also measured
1 | CN(C)CC(=O)Nc1cc(F)c2c(c1)CC(CNCCC1CN(c3cnc4c(n3)NC(=O)CO4)C(=O)O1)C2 (stereo unspecified) | 2 (≈ 3.79 µM) | 26 | 0.25 (≈ 0.474 µM) | 2 (≈ 3.79 µM) | 16 (≈ 30.3 µM) | 0.5 (≈ 0.948 µM) | 2 (≈ 3.79 µM) | 0.125 (≈ 0.237 µM) | 0.125 (≈ 0.237 µM) | 1 (≈ 1.9 µM) | 4 (≈ 7.58 µM) | > 20000 | 0.5 (≈ 0.948 µM) | ≤ 0.06 | 2 (≈ 3.79 µM) | 8 (≈ 15.2 µM) | 0.125 (≈ 0.237 µM) | 3 | ≤ 0.06 | < 1 | remaining at 5 h [2]: 99%; Stability [3]: Unstable; Stability [6]: Unstable; remaining at 5 h [10]: 76%; IC20 (hERG (KCNH2) [16]): > 10000 nM; Stability [21]: Unstable; inhibition at 10 µM (hERG (KCNH2) [26]): < 1%; MIC (Klebsiella pneumoniae [27]): ≤ 0.06 µg/mL
2 | CN(C)C(C)(C)C(=O)Nc1cc(F)c2c(c1)CC(CNCCC1CN(c3cnc4c(n3)NC(=O)CO4)C(=O)O1)C2 (stereo unspecified) | 4 (≈ 7.2 µM) | 43 | ≤ 0.06 | 4 (≈ 7.2 µM) | 4 (≈ 7.2 µM) | 1 (≈ 1.8 µM) | 4 (≈ 7.2 µM) | 0.125 (≈ 0.225 µM) | 0.25 (≈ 0.45 µM) | 0.25 (≈ 0.45 µM) | 4 (≈ 7.2 µM) | 8200 | ≤ 0.06 | ≤ 0.06 | 2 (≈ 3.6 µM) | 2 (≈ 3.6 µM) | 0.25 (≈ 0.45 µM) | 13 | ≤ 0.06 | 5 | Stability [3]: Stable; Stability [6]: Stable; IC20 (hERG (KCNH2) [16]): 3000 nM; Stability [21]: Stable; inhibition at 10 µM (hERG (KCNH2) [26]): 57%; MIC (Klebsiella pneumoniae [27]): ≤ 0.06 µg/mL
3 | C[C@H](C(=O)Nc1cc(F)c2c(c1)CC(CNCCC1CN(c3cnc4c(n3)NC(=O)CO4)C(=O)O1)C2)N(C)C (stereo in doubt; 2e) | 2 (≈ 3.69 µM) | 38 | 0.125 (≈ 0.231 µM) | 2 (≈ 3.69 µM) | 8 (≈ 14.8 µM) | 1 (≈ 1.85 µM) | 2 (≈ 3.69 µM) | 0.125 (≈ 0.231 µM) | 0.25 (≈ 0.462 µM) | 0.5 (≈ 0.923 µM) | 16 (≈ 29.5 µM) | > 20000 | 0.25 (≈ 0.462 µM) | ≤ 0.06 | 2 (≈ 3.69 µM) | 4 (≈ 7.39 µM) | 0.25 (≈ 0.462 µM) | 8 | ≤ 0.06 | < 1 | Stability [3]: Stable; Stability [6]: Stable; IC20 ([15]; human, cho): > 10000 nM; Stability [21]: Stable; inhibition at 10 µM (hERG (KCNH2) [26]): < 1%; MIC (Klebsiella pneumoniae [27]): ≤ 0.06 µg/mL
4 | C[C@@H](N)COc1cc(F)c2c(c1)CC(CN1CCC3(CC1)CN(c1cnc4c(n1)NC(=O)CO4)C(=O)O3)C2 (stereo partly specified) | 0.5 (≈ 0.95 µM) | 24 | ≤ 0.06 | 1 (≈ 1.9 µM) | 0.5 (≈ 0.95 µM) | 0.125 (≈ 0.237 µM) | 0.5 (≈ 0.95 µM) | ≤ 0.06 | 0.125 (≈ 0.237 µM) | ≤ 0.06 | 1 (≈ 1.9 µM) | > 20000 | ≤ 0.06 | ≤ 0.06 | 0.5 (≈ 0.95 µM) | 0.25 (≈ 0.475 µM) | ≤ 0.06 | 16 | ≤ 0.06 | 6.7 | IC20 (hERG (KCNH2) [16]): > 10000 nM; inhibition at 10 µM (hERG (KCNH2) [26]): 12%; MIC (Klebsiella pneumoniae [27]): ≤ 0.06 µg/mL
5 | N#Cc1cc(OC2CNC2)cc2c1CC(CNCCC1CN(c3ccc4c(n3)NC(=O)CO4)C(=O)O1)C2 (stereo unspecified) | 1 (≈ 1.98 µM) | 51 | 4 (≈ 7.93 µM) | 4 (≈ 7.93 µM) | 4 (≈ 7.93 µM) | 0.125 (≈ 0.248 µM) | 0.5 (≈ 0.991 µM) | 0.5 (≈ 0.991 µM) | 0.5 (≈ 0.991 µM) | 0.5 (≈ 0.991 µM) | 8 (≈ 15.9 µM) | > 20000 | ≤ 0.06 | 0.125 (≈ 0.248 µM) | 4 (≈ 7.93 µM) | 8 (≈ 15.9 µM) | 0.5 (≈ 0.991 µM) | 29 | ≤ 0.06 | < 1 | IC20 (hERG (KCNH2) [16]): > 10000 nM; inhibition at 10 µM (hERG (KCNH2) [26]): < 1%; MIC (Klebsiella pneumoniae [27]): ≤ 0.06 µg/mL
